Measured values from patent US9867833B2, “Serine/threonine kinase inhibitors” (GENENTECH, INC., priority 2013, dated 2018).

target: human ERK-2 (Mitogen Activated Kinase 1) (Homo sapiens (Human), UniProt P28482); assay: ERK-2 Enzymatic Assay; format: biochemical; conditions: human ERK-2 enzyme 5 nM, 25 μM ATP, S/T17 peptide substrate; isomer = configuration of CR2R3
Summary of the method: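 Recombinant human ERK-2 (aa 8-360, N-terminal 6-His, E. coli) with 3-fold serially diluted compound. Per-well rates from linear fits converted to percent of control; IC50 by four-parameter fit.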

Chain of human ERK-2 (Mitogen Activated Kinase 1) (P28482 8-360): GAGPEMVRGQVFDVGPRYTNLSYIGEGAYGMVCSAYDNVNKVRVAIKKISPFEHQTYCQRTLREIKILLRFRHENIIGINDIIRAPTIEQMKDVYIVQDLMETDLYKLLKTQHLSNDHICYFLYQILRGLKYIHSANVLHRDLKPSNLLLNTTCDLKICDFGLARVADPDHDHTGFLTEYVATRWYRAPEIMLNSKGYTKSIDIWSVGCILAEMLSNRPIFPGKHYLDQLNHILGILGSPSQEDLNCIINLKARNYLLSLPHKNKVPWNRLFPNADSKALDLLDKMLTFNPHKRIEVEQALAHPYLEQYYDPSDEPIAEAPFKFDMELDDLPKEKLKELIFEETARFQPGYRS

Row | IC50 | Compound
1 | 12.4 nM | Cn1nccc1Nc1nccc(-c2cc3n4c(nnc4c2)[C@H](Cc2ccc(F)c(Cl)c2)CO3)n1 [(S) I-82, 4-(3-(3-chloro-4-fluorobenzyl)-3,4-dihydro-5-oxa-1,2,2a^1-triazaacenaphthylen-7-yl)-N-(1-methyl-1H-pyrazol-5-yl)pyrimidin-2-amine]
2 | 32.7 nM | CN1C(=O)C[C@H](Cc2ccc(Cl)cn2)c2nnc3cc(-c4ccnc(Nc5ccnn5C)n4)cc1n23 [(S) I-84, 9-((5-chloropyridin-2-yl)methyl)-6-methyl-4-(2-((1-methyl-1H-pyrazol-5-yl)amino)pyrimidin-4-yl)-8,9-dihydro-1,2,2a^1,6-tetraazabenzo[cd]azulen-7(6H)-one]
3 | 25.9 nM | COc1ccc(C[C@H]2CC(=O)N(C)c3cc(-c4ccnc(Nc5ccnn5C)n4)cc4nnc2n34)c(F)c1 [(S) I-85, 9-(2-fluoro-4-methoxybenzyl)-6-methyl-4-(2-((1-methyl-1H-pyrazol-5-yl)amino)pyrimidin-4-yl)-8,9-dihydro-1,2,2a^1,6-tetraazabenzo[cd]azulen-7(6H)-one]
4 | 1000 nM | CC(C)[C@@H]1CC(=O)N(C)c2cc(-c3ccnc(Nc4ccnn4C)c3)cc3nnc1n23 [(S) I-87, 9-isopropyl-6-methyl-4-(2-((1-methyl-1H-pyrazol-5-yl)amino)pyridin-4-yl)-8,9-dihydro-1,2,2a^1,6-tetraazabenzo[cd]azulen-7(6H)-one]
5 | 6.36 nM | Cn1nccc1Nc1nccc(-c2cc3n4c(nnc4c2)[C@H](Cc2cccc(Cl)c2)CO3)n1 [(S) I-88, 4-(3-(3-chlorobenzyl)-3,4-dihydro-5-oxa-1,2,2a^1-triazaacenaphthylen-7-yl)-N-(1-methyl-1H-pyrazol-5-yl)pyrimidin-2-amine]
6 | 2.31 nM | Cn1nccc1Nc1cc(-c2cc3n4c(nnc4c2)[C@H](Cn2cc(C(F)(F)F)cn2)CCO3)ccn1 [(S) I-89, N-(1-methyl-1H-pyrazol-5-yl)-4-(9-((4-(trifluoromethyl)-1H-pyrazol-1-yl)methyl)-8,9-dihydro-7H-6-oxa-1,2,2a^1-triazabenzo[cd]azulen-4-yl)pyridin-2-amine]
7 | < 0.02 nM | Cn1nccc1Nc1nccc(-c2cc3n4c(nnc4c2)[C@@H](Oc2ccccc2)CCO3)n1 [(S) I-90, N-(1-methyl-1H-pyrazol-5-yl)-4-(9-phenoxy-8,9-dihydro-7H-6-oxa-1,2,2a^1-triazabenzo[cd]azulen-4-yl)pyrimidin-2-amine]
8 | 0.035 nM | Cn1nccc1Nc1nccc(-c2cc3n4c(nnc4c2)[C@@H](Oc2cncc(F)c2)CCO3)n1 [(S) I-91, 4-(9-((5-fluoropyridin-3-yl)oxy)-8,9-dihydro-7H-6-oxa-1,2,2a^1-triazabenzo[cd]azulen-4-yl)-N-(1-methyl-1H-pyrazol-5-yl)pyrimidin-2-amine]
9 | 18.2 nM | Cc1cc(C[C@@H]2CCOc3cc(-c4ccnc(Nc5ccnn5C)n4)cc4nnc2n34)on1 [(S) I-93, N-(1-methyl-1H-pyrazol-5-yl)-4-(9-((3-methylisoxazol-5-yl)methyl)-8,9-dihydro-7H-6-oxa-1,2,2a^1-triazabenzo[cd]azulen-4-yl)pyrimidin-2-amine]
10 | 0.794 nM | COc1cccc(C[C@@H]2COc3cc(-c4ccnc(Nc5ccnn5C)c4)cc4nnc2n34)c1 [(S) I-97, 4-(3-(3-methoxybenzyl)-3,4-dihydro-5-oxa-1,2,2a^1-triazaacenaphthylen-7-yl)-N-(1-methyl-1H-pyrazol-5-yl)pyridin-2-amine]
11 | 0.025 nM | Cn1nccc1Nc1nccc(-c2cc3n4c(nnc4c2)[C@@H](CCC(F)(F)F)CCO3)n1 [(S) I-102, N-(1-methyl-1H-pyrazol-5-yl)-4-(9-(3,3,3-trifluoropropyl)-8,9-dihydro-7H-6-oxa-1,2,2a^1-triazabenzo[cd]azulen-4-yl)pyrimidin-2-amine]
12 | 0.026 nM | CCC[C@H]1CCOc2cc(-c3ccnc(Nc4ccnn4C)c3)cc3nnc1n23 [(S) I-103, N-(1-methyl-1H-pyrazol-5-yl)-4-(9-propyl-8,9-dihydro-7H-6-oxa-1,2,2a^1-triazabenzo[cd]azulen-4-yl)pyridin-2-amine]
13 | < 0.02 nM | CCC[C@H]1CCOc2cc(-c3ccnc(Nc4ccnn4C)n3)cc3nnc1n23 [(S) I-104, N-(1-methyl-1H-pyrazol-5-yl)-4-(9-propyl-8,9-dihydro-7H-6-oxa-1,2,2a^1-triazabenzo[cd]azulen-4-yl)pyrimidin-2-amine]
14 | 0.023 nM | CC(C)C[C@H]1CCOc2cc(-c3ccnc(Nc4ccnn4C)n3)cc3nnc1n23 [(S) I-107, 4-(9-isobutyl-8,9-dihydro-7H-6-oxa-1,2,2a^1-triazabenzo[cd]azulen-4-yl)-N-(1-methyl-1H-pyrazol-5-yl)pyrimidin-2-amine]
15 | < 0.02 nM | Cn1nccc1Nc1nccc(-c2cc3n4c(nnc4c2)[C@@H](Oc2ccc(F)cc2)CCO3)n1 [(S) I-108, 4-(9-(4-fluorophenoxy)-8,9-dihydro-7H-6-oxa-1,2,2a^1-triazabenzo[cd]azulen-4-yl)-N-(1-methyl-1H-pyrazol-5-yl)pyrimidin-2-amine]
16 | 0.14 nM | Clc1cnn(C[C@@H]2CCOc3cc(-c4ccnc(NC5CCOCC5)n4)cc4nnc2n34)c1 [(S) I-110, 4-(9-((4-chloro-1H-pyrazol-1-yl)methyl)-8,9-dihydro-7H-6-oxa-1,2,2a^1-triazabenzo[cd]azulen-4-yl)-N-(tetrahydro-2H-pyran-4-yl)pyrimidin-2-amine]
17 | < 0.02 nM | Cn1nccc1Nc1nccc(-c2cc3n4c(nnc4c2)[C@@H](Oc2ccc(F)c(F)c2)CCO3)n1 [(S) I-111, 4-(9-(3,4-difluorophenoxy)-8,9-dihydro-7H-6-oxa-1,2,2a^1-triazabenzo[cd]azulen-4-yl)-N-(1-methyl-1H-pyrazol-5-yl)pyrimidin-2-amine]
18 | 0.039 nM | CC(C)[C@H]1CNc2cc(-c3ccnc(Nc4ccnn4C)n3)cc3nnc1n23 [Compound I-3, S-4-(3-isopropyl-4,5-dihydro-3H-1,2,2a^1,5-tetraazaacenaphthylen-7-yl)-N-(1-methyl-1H-pyrazol-5-yl)pyrimidin-2-amine]
19 | 0.023 nM | CN1C(=O)N[C@H](Cc2ccc(Cl)cc2)c2nnc3cc(-c4ccnc(Nc5ccnn5C)n4)cc1n23 [Compound I-6, (R)-9-(4-chlorobenzyl)-6-methyl-4-(2-((1-methyl-1H-pyrazol-5-yl)amino)pyrimidin-4-yl)-8,9-dihydro-1,2,2a^1,6,8-pentaazabenzo[cd]azulen-7(6H)-one]
20 | 1.15 nM | CC(C)C[C@@H]1c2nnc3cc(-c4ccnc(Nc5ccnn5C)n4)cc(n23)N(C)C(=O)N1C [Compound I-19, (R)-9-isobutyl-6,8-dimethyl-4-(2-((1-methyl-1H-pyrazol-5-yl)amino)pyrimidin-4-yl)-8,9-dihydro-1,2,2a^1,6,8-pentaazabenzo[cd]azulen-7(6H)-one]
21 | 1.12 nM | CC(C)C[C@@H]1c2nnc3cc(-c4ccnc(Nc5ccnn5C)n4)cc(n23)NC(=O)N1C [Compound I-23, (R)-9-isobutyl-8-methyl-4-(2-((1-methyl-1H-pyrazol-5-yl)amino)pyrimidin-4-yl)-8,9-dihydro-1,2,2a^1,6,8-pentaazabenzo[cd]azulen-7(6H)-one]
22 | 4.28 nM | CC(C)C[C@H]1NC(=O)N(C)c2cc(-c3ccnc(Nc4ccnn4C)c3)cc3nnc1n23 [Compound I-25, (R)-9-isobutyl-6-methyl-4-(2-((1-methyl-1H-pyrazol-5-yl)amino)pyridin-4-yl)-8,9-dihydro-1,2,2a^1,6,8-pentaazabenzo[cd]azulen-7(6H)-one]
